Laboratory results published in PubChem BioAssay (NCI).
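These data come from cells grown in 96-well plates and exposed to compound for 48 hours at five concentrations. GI50 = concentration required for 50% inhibition of growth. Definition used: TGI = concentration required for complete inhibition of growth.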

Legend:
Experiment in all cases: growth of human tumour cells (NCI), 48 h
NCI-H460 lung = system: NCI-H460 lung
NCI-H522 lung = system: NCI-H522 lung
NCI/ADR-RES ovarian = system: NCI/ADR-RES ovarian
OVCAR-3 ovarian = system: OVCAR-3 ovarian
OVCAR-4 ovarian = system: OVCAR-4 ovarian
OVCAR-5 ovarian = system: OVCAR-5 ovarian
OVCAR-8 ovarian = system: OVCAR-8 ovarian
PC-3 prostate = system: PC-3 prostate
RPMI-8226 leukemia = system: RPMI-8226 leukemia
RXF 393 renal = system: RXF 393 renal
SF-268 CNS = system: SF-268 CNS
SF-295 CNS = system: SF-295 CNS
SF-539 CNS = system: SF-539 CNS
SK-MEL-2 melanoma = system: SK-MEL-2 melanoma
SK-MEL-28 melanoma = system: SK-MEL-28 melanoma
SK-MEL-5 melanoma = system: SK-MEL-5 melanoma
SK-OV-3 ovarian = system: SK-OV-3 ovarian
SN12C renal = system: SN12C renal
SNB-19 CNS = system: SNB-19 CNS
SNB-75 CNS = system: SNB-75 CNS
SR leukemia = system: SR leukemia
SW-620 colon = system: SW-620 colon
T-47D breast = system: T-47D breast
TK-10 renal = system: TK-10 renal
U251 CNS = system: U251 CNS
UACC-257 melanoma = system: UACC-257 melanoma
UACC-62 melanoma = system: UACC-62 melanoma
UO-31 renal = system: UO-31 renal

## Cc1ccc(-c2c(C#N)[n+](=O)c3cc(Cl)c(Cl)cc3n2[O-])cc1
NCI-H460 lung
  GI50: 20 µM
  TGI: 41.3 µM
NCI-H522 lung
  GI50: 12.9 µM
  TGI: > 67.4 µM
NCI/ADR-RES ovarian
  GI50: 5.86 µM
  TGI: 17.3 µM
OVCAR-3 ovarian
  GI50: 8.29 µM
  TGI: 23.5 µM
OVCAR-4 ovarian
  GI50: 10.8 µM
  TGI: 30.4 µM
OVCAR-5 ovarian
  GI50: 6.02 µM
  TGI: 14.7 µM
OVCAR-8 ovarian
  GI50: 7.39 µM
  TGI: 23.1 µM
PC-3 prostate
  GI50: 6.88 µM
  TGI: 18.5 µM
RPMI-8226 leukemia
  GI50: 4.76 µM
  TGI: 16.7 µM
RXF 393 renal
  GI50: 5.53 µM
  TGI: 12.6 µM
SF-268 CNS
  GI50: 5.16 µM
  TGI: 18 µM
SF-295 CNS
  GI50: 19.4 µM
  TGI: 37.9 µM
SF-539 CNS
  GI50: 16.1 µM
  TGI: 35 µM
SK-MEL-2 melanoma
  GI50: 17.3 µM
  TGI: 34.7 µM
SK-MEL-28 melanoma
  GI50: 3.98 µM
  TGI: 13.5 µM
SK-MEL-5 melanoma
  GI50: 13.9 µM
  TGI: 27.2 µM
SK-OV-3 ovarian
  GI50: 21.6 µM
  TGI: 47.1 µM
SN12C renal
  GI50: 30.5 µM
  TGI: 85.6 µM
SNB-19 CNS
  GI50: 14.4 µM
  TGI: > 47.1 µM
SNB-75 CNS
  GI50: 18.2 µM
  TGI: 38.2 µM
SR leukemia
  GI50: 2.13 µM
  TGI: > 100 µM
SW-620 colon
  GI50: 5.08 µM
  TGI: 11.8 µM
T-47D breast
  GI50: 5.98 µM
  TGI: 16.3 µM
TK-10 renal
  GI50: 16.7 µM
  TGI: 32.9 µM
U251 CNS
  GI50: 34.6 µM
  TGI: > 100 µM
UACC-257 melanoma
  GI50: 4.89 µM
  TGI: 9.77 µM
UACC-62 melanoma
  GI50: > 47 µM
  TGI: > 69.4 µM
UO-31 renal
  GI50: 13.6 µM
  TGI: 35.7 µM
